IC50 data for 75 compounds are collected here from PubChem BioAssay AID1645867 (Buhrlage Lab, Dana-Farber Cancer Institute and Novartis …, 2021).

Active and inactive are the calls of the source. How the calls were made is not given here.

This experiment deals with Ubiquitin carboxyl-terminal hydrolase isozyme L1 (Homo sapiens) (UniProt P09936). As to the kind of experiment: UCH-L1 deubiquitylase inhibitors, biochemical concentration-response, hit retest (AID 1645867). The conditions noted are these: recombinant UCHL1 deubiquitinase activity assay.
Ubiquitin carboxyl-terminal hydrolase isozyme L1 (Homo sapiens), sequence (P09936 whole entry, looked up): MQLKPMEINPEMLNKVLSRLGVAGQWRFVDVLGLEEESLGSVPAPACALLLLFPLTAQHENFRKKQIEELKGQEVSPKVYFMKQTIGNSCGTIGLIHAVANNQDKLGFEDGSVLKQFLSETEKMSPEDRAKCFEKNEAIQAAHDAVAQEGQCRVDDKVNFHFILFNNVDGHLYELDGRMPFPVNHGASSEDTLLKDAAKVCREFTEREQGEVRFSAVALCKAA
Usually IC50 stands for the point on the concentration scale where inhibition reaches its midpoint. Turning to `N#CCCN(C(=O)c1cc2c(s1)-c1ccccc1OC2)c1ccccc1`, the IC50 is > 25 µM (inactive).
As to `N=C1/C(=C/c2cn(Cc3ccccc3F)c3ccccc23)C(=O)N=C2SC(C(F)(F)F)=NN12`, the IC50 was > 25 µM (inactive).
As to `CCc1cccc(C)c1NC(=O)Cn1nc2ccc(C(=O)NCc3ccccc3)cn2c1=O`, the IC50 is > 25 µM (inactive).
Consider `COc1ccc(NC(=O)Cn2c(=O)n(-c3ccc(CC(=O)NCc4ccco4)cc3)c(=O)c3ccccc32)cc1Cl`, for which the IC50 was > 25 µM (inactive).
The value for `O=C(Nc1c(C(=O)N2CCCCCC2)oc2ccccc12)C1CCCC1` was > 25 µM (inactive); that for `O=c1[nH]cccc1NS(=O)(=O)c1ccc(F)cc1` was > 25 µM (inactive).
For `CSc1cccc(NC(=O)C2C3C=CC4(O3)C2C(=O)N(C2CCCCCC2)C4C(=O)NC2CCCCC2)c1` (stereo not given), the IC50 is > 25 µM (inactive).
On to `O=C(c1ccc(Cl)cc1)N(c1ccccn1)C1CCCCC1`, for which the IC50 was > 25 µM (inactive).
The value for `O=C1CSC(c2ccc(F)cc2)c2c(n(C3CCCCCC3)[nH]c2=O)N1` (stereo not given) was > 25 µM (inactive); that for `Cc1cc(C)c(NC(=O)Cn2c(SCc3cccc(F)c3)nc3cccnc32)c(C)c1` was > 25 µM (inactive); that for `O=C(CSc1nnc(-c2cccnc2)n1-c1ccccc1)c1cccc([N+](=O)[O-])c1` was > 25 µM (inactive).
With `CCOc1ccc(NS(=O)(=O)c2ccc(NC(=O)Nc3ccccc3)cc2)cc1`, the IC50 was > 25 µM (inactive).
Consider `COc1ccc(-c2nc(CNC(=O)c3ccccc3C)cs2)cc1`, for which the IC50 is > 25 µM (inactive).
For `COc1cc(OC)c(NC(=O)c2cc(-c3ccccn3)n[nH]2)cc1Cl` the value was > 25 µM (inactive); for `O=C(Cn1c(=O)c2ccccc2c2ccccc21)Nc1ccc2c(c1)OCO2`, > 25 µM (inactive).
The value for `CSc1ncccc1C(=O)NC1(O)C(=O)c2ccccc2C1=O` was 18.3 µM.
The value for `O=c1c(-c2nc(-c3ccncc3)no2)cccn1Cc1c(F)cccc1Cl` was > 25 µM (inactive); that for `O=C(Nc1c(C(=O)N2CCCCCC2)oc2ccccc12)C1CCCCC1` was > 25 µM (inactive); that for `COc1ccccc1OCCSc1nnc(-c2ccc3c(c2)OCCCO3)n1C` was > 25 µM (inactive).
Regarding `Cc1cc2nc(N3CCN(C(=O)c4ccccc4)CC3)c3ccccc3n2n1`, the IC50 is > 25 µM (inactive).
For `Cc1nc(C2(NC(=O)Nc3ccc(F)cc3F)CCCC2)no1` the value was > 25 µM (inactive).
Regarding `Cc1ncc(CO)c2c1Oc1nc(-c3cccc(Cl)c3)nc(SCC(=O)N3CCCCC3)c1C2`, the IC50 is > 25 µM (inactive).
For `O=C(CSc1nnc(C2CC2)n1-c1ccccc1)c1ccc(F)c(F)c1` the value was > 25 µM (inactive); for `CCOc1ccc2c(c1)c(=O)c(C(=O)c1ccccc1)cn2CC(=O)Nc1ccccc1`, > 25 µM (inactive); for `O=C(CCSc1nnnn1-c1ccccc1)Nc1cc(C(F)(F)F)ccc1Cl`, > 25 µM (inactive).
For the compound `CC(C)(C)n1nc2c(c1NC(=O)Cc1ccccc1)CSC2`, the IC50 is > 25 µM (inactive).
For `O=C(Cn1cccc(-c2nc(-c3ccccc3)no2)c1=O)Nc1ccccc1F` the value was > 25 µM (inactive); for `O=C(Nc1cnc(-c2cccc(Cl)c2)nc1)C1CCC1`, > 25 µM (inactive).
With `O=C(Cn1c(COc2ccccc2)nc2ccccc21)Nc1cc(Cl)cc(Cl)c1`, the IC50 is > 25 µM (inactive).
`O=C(NCc1ccco1)c1cccc(S(=O)(=O)N2CC(c3ccccc3)CC2=O)c1` (stereo not given): the IC50 is > 25 µM (inactive).
For `O=C(Nc1nc2ccccc2s1)C1CC(=O)N(c2ccccc2)C1` (stereo not given) the value was > 25 µM (inactive).
Regarding `C=C(CCC(C)(C)/C=C/CC/C(C)=C/COC(COP(=O)(O)O[C@@H]1OC(C(N)=O)[C@@](C)(O)[C@H](OC(N)=O)C1O[C@@H]1OC(CO[C@@H]2OC(CO)[C@H](O)[C@H](O)C2O)[C@H](O[C@@H]2OC(CO)[C@H](O[C@@H]3OC(C(=O)NC4=C(O)CCC4=O)[C@H](O)[C@H](O)C3O)[C@H](O)C2NC(C)=O)C(O)[C@@H]1NC(C)=O)C(=O)O)CC1C(=C)CCCC1(C)C` (stereo not given in full), the IC50 is > 25 µM (inactive).
As to `Cc1ccc2c(c1)N(C)C(=O)c1cc(NC(=O)c3ccc(F)cc3)ccc1O2`, the IC50 was > 25 µM (inactive).
Consider `CC(CCc1ccccc1)NCc1c(C(=O)O)n(Cc2ccccc2)c2ccccc12` (stereo not given), for which the IC50 was > 25 µM (inactive).
For `COc1ccc(-c2cc3nc([C@H](C)NC(=O)Cc4ccccc4C)nn3cn2)cc1` the value was > 25 µM (inactive).
`COc1ccccc1Nc1ncc(C(=O)NCCc2ccc(Cl)cc2)c2ccccc12`: the IC50 is > 25 µM (inactive).
Regarding `CC(=O)O[C@@H]1C(=O)C2=C(C(=O)C[C@H]3C(C)(C)C(=O)CC[C@]23C)[C@]2(C)C(=O)C[C@H]([C@H](C)CC(=O)C[C@@H](C)C(=O)O)[C@@]12C`, the IC50 was > 25 µM (inactive).
Turning to `CC1=C(O)C(=O)C=C2C1=CC=C1[C@@]2(C)CC[C@@]2(C)[C@@H]3C[C@](C)(C(=O)O)CC[C@]3(C)CC[C@]12C`, the IC50 is > 25 µM (inactive).
Turning to `N#Cc1ccc(NC(=O)Nc2cccn(Cc3ccccc3Br)c2=O)cc1`, the IC50 was > 25 µM (inactive).
Turning to `O=C(Nc1ccc(NC(=O)c2ccccc2O)cc1)Nc1ccc(OCc2ccccc2)cc1`, the IC50 was > 25 µM (inactive).
For `Cc1c(-c2nsc(NC(=O)c3ccc(Cl)cc3)n2)nnn1-c1ccccc1F` the value was > 25 µM (inactive); for `Cc1ccccc1NC(=O)Cn1cc(S(=O)(=O)Cc2ccccc2)c2ccccc21`, > 25 µM (inactive).
For `CCC(C(=O)C(C)C(O)C(C)CCc1ccc(C)c(O)c1C(=O)O)C1OC(CC)(C2CCC(O)(CC)C(C)O2)CC1C` (stereo not given) the value was > 25 µM (inactive).
For `Cc1nnc(-c2ccc3ccn(CC(=O)N4CCN(c5ccccc5)CC4)c3c2)o1`, the IC50 is > 25 µM (inactive).
For `CCC(C(=O)Nc1ncc2c(n1)CC(c1ccccc1)CC2=O)c1ccccc1` (stereo not given) the value was > 25 µM (inactive); for `COc1ccc(CNC(=O)CCCc2nnc3c(=O)n(-c4cc(C)cc(C)c4)ccn23)cc1`, > 25 µM (inactive); for `CCc1ccc(NC(=O)C2CCN(c3nc4nc[nH]c(=O)c4s3)CC2)cc1`, > 25 µM (inactive).
Take `O=C1CC(c2ccccc2O)Oc2ccccc21` (stereo not given): the IC50 is > 25 µM (inactive).
The value for `O=C1NC[C@@H](CCC(=O)N2CCCC2)N2C[C@@H](NCc3ccccc3)C[C@@H]12` was > 25 µM (inactive).
On to `O=C1CC(c2nc3ccccc3n2CCOc2ccccc2)CN1Cc1ccccc1` (stereo not given), for which the IC50 is > 25 µM (inactive).
The value for `O=C(Nc1ccc(F)cc1)N1C[C@@H]2c3nccn3-c3ccccc3[C@@H]2C1` was > 25 µM (inactive); that for `CCN1C(=O)c2ccccc2C(=O)[C@@]2(C)CN(C(=O)c3ccccc3)C[C@@H]12` was > 25 µM (inactive).
For `COc1ccc(-c2cc3nc([C@H](C)NC(=O)COc4ccccc4F)nn3cn2)cc1` the value was > 25 µM (inactive).
Consider `COc1ccc(CC(=O)Nc2c(NCc3ccccc3)c3ccccc3oc2=O)cc1`, for which the IC50 is > 25 µM (inactive).
In the case of `CC(C)C(=O)Nc1nc2cc(NS(=O)(=O)c3ccccc3)ccc2s1`, the IC50 is > 25 µM (inactive).
The value for `CC[C@@H]1[C@@H](C)O[C@@](O)([C@@H](C)[C@H](O)[C@H](C)[C@H]2OC(=O)/C=C/C=C/[C@H](C)[C@@H]([C@@H](C)[C@@H](O)[C@H](C)[C@@]3(O)C[C@@H](O[C@H]4C[C@H](O)[C@H](O)[C@H](C)O4)[C@H](CC)[C@@H](C)O3)OC(=O)/C=C/C=C/[C@@H]2C)C[C@H]1O[C@H]1C[C@H](O)[C@H](O)[C@H](C)O1` was > 25 µM (inactive); that for `COc1ccc(NC(=O)Cn2cc(C(=O)c3ccc(Cl)cc3)c(=O)c3cc(F)ccc32)cc1` was > 25 µM (inactive); that for `O=c1cc(Cc2ccccc2)nc2c(-c3ccccc3)c(COc3ccccc3)[nH]n12` was > 25 µM (inactive).
`CC(C)=CCOC(C)(C)[C@H]1OC2CC[C@@]3(C)C(CCC4Cc5c([nH]c6ccccc56)[C@@]43C)C23OC3[C@@H]1O` (stereo not given in full): the IC50 was > 25 µM (inactive).
For `Cc1ccc(N(CC(=O)N2CCCc3ccccc32)S(=O)(=O)c2ccc3c(c2)OCCO3)cc1` the value was > 25 µM (inactive); for `Cn1c(CNS(=O)(=O)c2ccc(Br)cc2)nnc1SCc1ccc(Cl)c(Cl)c1`, > 25 µM (inactive).
In the case of `Cc1ccc(NCc2cc3c(-c4cccc(F)c4)nn(-c4ccccc4)c3[nH]c2=O)cc1C`, the IC50 is 21.6 µM.
Regarding `COc1cccc2c1NC(=O)C21CCN(C(=O)Nc2cccc3ccccc23)CC1`, the IC50 is > 25 µM (inactive).
For `Cc1ccc(Cn2c(=O)c(C#N)c3n(c2=O)CCC3)cc1` the value was > 25 µM (inactive); for `CC(NC(=O)c1ccccc1)c1nc2ccccc2n1CC(=O)Nc1ccc2c(c1)OCO2` (stereo not given), > 25 µM (inactive).
For `O=C(Cn1nnc2ccccc21)Nc1nc(-c2ccc3c(c2)CCN3C(=O)c2ccccc2F)cs1` the value was > 25 µM (inactive).
Take `CS(=O)(=O)n1nc(NCc2ccc(F)cc2)nc1NCc1ccc(F)cc1`: the IC50 was > 25 µM (inactive).
The value for `O=C(COc1ccc(N2CC(C(=O)NCc3ccccc3)CC2=O)cc1)Nc1ccccc1Cl` (stereo not given) was > 25 µM (inactive).
The value for `CCOc1ccc(-c2ccc3nnc(SCC(=O)Nc4ccc(F)cc4)n3n2)cc1` was > 25 µM (inactive); that for `Fc1ccc(NCc2nc3ccccc3n2Cc2ccccc2)cc1` was > 25 µM (inactive); that for `O=C(O)c1c(CNC2CCCCCC2)c2ccccc2n1Cc1ccc(F)cc1` was > 25 µM (inactive).
Turning to `O=C1NC2(CCCc3ccccc32)C(=O)N1Cc1csc(-c2ccccc2)n1` (stereo not given), the IC50 was > 25 µM (inactive).
Regarding `O=C(c1cncs1)N1CCc2[nH]nc(Nc3ccccc3)c2C1`, the IC50 was > 25 µM (inactive).
For `COc1ccccc1N/C=C/c1onc(-c2c(F)cccc2Cl)c1C#N` the value was > 25 µM (inactive); for `Cc1ccc(/C=C/C(=O)c2oc3ccc(F)cc3c2C)cc1`, > 25 µM (inactive).
